These results are taken from patent US9850283B2, “Macrocyclic inhibitors of the PD-1/PD-L1 and CD80(B7-1)/PD-L1 protein/protein interactions” (BRISTOL-MYERS SQUIBB COMPANY, priority 2013, dated 2017).

Experiment [1] concerns the target T1, LK35.2-hPD-L1 cells / PE-labeled PD-1-Ig (Homo sapiens, UniProt Q9NZQ7).
T1 construct: expressed in transfected cells; host or cells: LK35.2 mouse B cell line
Briefly: LK35.2-hPD-L1 cell binding high-content screening assay. Particulars: cell binding assay, cell line not given; cluster symbol; read-out: CBA IC50 cluster. Format: cell-based. The procedure, abridged: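 Mouse LK35.2 B cells stably over-expressing human PD-L1, cultured overnight, treated with compound plus PE-labeled human PD-1-Ig (1 nM final) in RPMI/10% FCS for 1 h at 37 °C. After washing, bound fluorescence quantified by high-content imaging.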

A further experiment concerns the target T2, Human PD-L1/PD-1 (Homo sapiens, UniProt Q9NZQ7).
T2 construct: made in house; host or cells: HEK293T
Description: HTRF PD-1-Ig/PD-L1-His binding assay (human PD-L1). To be noted: cluster symbol; read-out: HTRF IC50 cluster. The procedure, abridged: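 Soluble PD-1-Ig binding to PD-L1-His measured by HTRF in dPBS with 0.1% BSA and 0.05% Tween-20. Detection used europium cryptate anti-Ig antibody (1 nM final) and APC anti-His antibody (20 nM final) added on top of the binding reaction.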
(In TR-FRET formats the signal depends on donor and acceptor labels being close together.)

Positions of bridges follow the written chain, without caps; N, C: chain ends. Non-standard residues stand in square brackets, D forms with d. Residues, ends and D or L forms follow the SMILES beside them. ξ: configuration not given here. Bta = N[C@@H](Cc1csc2ccccc12)C(=O)O; Hyp = O=C(O)[C@@H]1C[C@@H](O)CN1; NMeNle = CCCC[C@H](NC)C(=O)O; NMeM = CN[C@@H](CCSC)C(=O)O; NMeA = CN[C@@H](C)C(=O)O; ξhCys = NC(CCS)C(=O)O; ξC = NC(CS)C(=O)O

T2 sequence (Q9NZQ7 with tags, fused parts or gaps): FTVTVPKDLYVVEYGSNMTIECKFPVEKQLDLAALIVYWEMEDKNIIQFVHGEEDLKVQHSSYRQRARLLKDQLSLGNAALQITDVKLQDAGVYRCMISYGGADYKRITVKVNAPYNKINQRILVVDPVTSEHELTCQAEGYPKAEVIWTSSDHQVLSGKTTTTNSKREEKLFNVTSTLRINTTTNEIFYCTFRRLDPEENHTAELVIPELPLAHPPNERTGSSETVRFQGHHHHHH
T1 sequence (Q9NZQ7 19-290): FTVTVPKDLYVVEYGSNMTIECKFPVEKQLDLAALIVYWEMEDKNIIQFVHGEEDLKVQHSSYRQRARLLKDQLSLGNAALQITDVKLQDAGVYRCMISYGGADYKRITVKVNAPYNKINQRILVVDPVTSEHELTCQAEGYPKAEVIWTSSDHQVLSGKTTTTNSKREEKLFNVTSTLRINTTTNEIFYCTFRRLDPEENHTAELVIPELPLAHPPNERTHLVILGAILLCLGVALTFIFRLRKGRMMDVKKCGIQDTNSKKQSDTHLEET

For orientation: IC50 means the point on the concentration scale where inhibition reaches its midpoint. For the compound `CCCC[C@H]1C(=O)N(C)[C@@H](CCCC)C(=O)N[C@@H](CCCNC(=N)N)C(=O)NC(C(=O)NCC(N)=O)CCSCC(=O)N[C@@H](Cc2ccc(O)cc2)C(=O)N(C)[C@@H](C)C(=O)N[C@@H](CC(N)=O)C(=O)N2CCC[C@H]2C(=O)N[C@@H](Cc2cnc[nH]2)C(=O)N[C@@H](CC(C)C)C(=O)N2CCC[C@H]2C(=O)N[C@@H](Cc2c[nH]c3ccccc23)C(=O)N[C@@H](CO)C(=O)N[C@@H](Cc2c[nH]c3ccccc23)C(=O)N1C` (stereo partly shown) [Example 9019] ({CH2CO}-Y[NMeA]NPHLPWSW[NMeNle][NMeNle]R[ξhCys]G-NH2; thioether N-14), the IC50 in experiment [1] is > 74.3 nM; at Human PD-L1/PD-1, 6.76 to 30.3 nM.
The matching figures for `CCCC[C@H]1C(=O)N(C)[C@@H](CCCC)C(=O)N[C@@H](CCCNC(=N)N)C(=O)NC(C(=O)NCC(N)=O)CCSCC(=O)N[C@@H](Cc2ccc(O)cc2)C(=O)N(C)[C@@H](C)C(=O)N[C@@H](CC(N)=O)C(=O)N2CCC[C@H]2C(=O)N[C@@H](Cc2cnc[nH]2)C(=O)N[C@@H](CC(C)C)C(=O)N2C[C@H](O)C[C@H]2C(=O)N[C@@H](Cc2c[nH]c3ccccc23)C(=O)N[C@@H](CO)C(=O)N[C@@H](Cc2csc3ccccc23)C(=O)N1C` (stereo partly shown) [Example 9020] ({CH2CO}-Y[NMeA]NPHL[Hyp]WS[Bta][NMeNle][NMeNle]R[ξhCys]G-NH2; thioether N-14): 4.78 to 72.9 nM and 0.385 to 6.74 nM.
For `CCCC[C@H]1C(=O)N(C)[C@@H](CCCC)C(=O)N[C@@H](CCCNC(=N)N)C(=O)NC(C(=O)NCC(N)=O)CCSCC(=O)N[C@@H](Cc2ccc(O)cc2)C(=O)N(C)[C@@H](C)C(=O)N[C@@H](CC(N)=O)C(=O)N2CCC[C@H]2C(=O)N[C@@H](Cc2cnc[nH]2)C(=O)N[C@@H](CC(C)C)C(=O)N2C[C@H](O)C[C@H]2C(=O)N[C@@H](Cc2c[nH]c3ccccc23)C(=O)N[C@@H](CO)C(=O)N[C@@H](Cc2c[nH]c3ccccc23)C(=O)N1C` (stereo partly shown) [Example 9021] ({CH2CO}-Y[NMeA]NPHL[Hyp]WSW[NMeNle][NMeNle]R[ξhCys]G-NH2; thioether N-14), in that order: > 74.3 nM and 6.76 to 30.3 nM.
Turning to `CCCC[C@H]1C(=O)N(C)[C@@H](CCSC)C(=O)N[C@@H](CCCNC(=N)N)C(=O)NC(C(=O)NCC(N)=O)CSCC(=O)N[C@@H](Cc2ccc(O)cc2)C(=O)N(C)[C@@H](C)C(=O)N[C@@H](CC(N)=O)C(=O)N2CCC[C@H]2C(=O)N[C@@H](Cc2cnc[nH]2)C(=O)N[C@@H](CC(C)C)C(=O)N2CCC[C@H]2C(=O)N[C@@H](Cc2c[nH]c3ccccc23)C(=O)N[C@@H](CO)C(=O)N[C@@H](Cc2csc3ccccc23)C(=O)N1C` (stereo partly shown) [Example 9022] ({CH2CO}-Y[NMeA]NPHLPWS[Bta][NMeNle][NMeM]R[ξC]G-NH2; thioether N-14), the IC50 in experiment [1] was in the range of 0.158 to 4.71 nM; at Human PD-L1/PD-1, 0.385 to 6.74 nM.
In the case of `CCCC[C@H]1C(=O)N(C)[C@@H](CCSC)C(=O)N[C@@H](CCCNC(=N)N)C(=O)NC(C(=O)NCC(N)=O)CSCC(=O)N[C@@H](Cc2ccc(O)cc2)C(=O)N(C)[C@@H](C)C(=O)N[C@@H](CC(N)=O)C(=O)N2CCC[C@H]2C(=O)N[C@@H](Cc2cnc[nH]2)C(=O)N[C@@H](CC(C)C)C(=O)N2C[C@H](O)C[C@H]2C(=O)N[C@@H](Cc2c[nH]c3ccccc23)C(=O)N[C@@H](CO)C(=O)N[C@@H](Cc2csc3ccccc23)C(=O)N1C` (stereo partly shown) [Example 9023] ({CH2CO}-Y[NMeA]NPHL[Hyp]WS[Bta][NMeNle][NMeM]R[ξC]G-NH2; thioether N-14), the 50% inhibitory concentration (IC50) lay within 0.158 to 4.71 nM in experiment [1] and 0.385 to 6.74 nM on Human PD-L1/PD-1.
The matching figures for `CCCC[C@H]1C(=O)N(C)[C@@H](CCSC)C(=O)N[C@@H](CCCNC(=N)N)C(=O)NC(C(=O)NCC(N)=O)CSCC(=O)N[C@@H](Cc2ccc(O)cc2)C(=O)N(C)[C@@H](C)C(=O)N[C@@H](CC(N)=O)C(=O)N2CCC[C@H]2C(=O)N[C@@H](Cc2cnc[nH]2)C(=O)N[C@@H](CC(C)C)C(=O)N2C[C@H](O)C[C@H]2C(=O)N[C@@H](Cc2c[nH]c3ccccc23)C(=O)N[C@@H](CO)C(=O)N[C@@H](Cc2c[nH]c3ccccc23)C(=O)N1C` (stereo partly shown) [Example 9024]: 0.158 to 4.71 nM and 0.385 to 6.74 nM.
The matching figures for `CCCC[C@H]1C(=O)N[C@@H](CCCNC(=N)N)C(=O)NC(C(=O)NCC(N)=O)CSCC(=O)N[C@@H](Cc2ccc(O)cc2)C(=O)N(C)[C@@H](C)C(=O)N[C@@H](CC(N)=O)C(=O)N2CCC[C@H]2C(=O)N[C@@H](Cc2cnc[nH]2)C(=O)N[C@@H](CC(C)C)C(=O)N2C[C@H](O)C[C@H]2C(=O)N[C@@H](Cc2c[nH]c3ccccc23)C(=O)N[C@@H](CO)C(=O)N[C@@H](Cc2csc3ccccc23)C(=O)N(C)[C@@H](CCSC)C(=O)N1C` (stereo partly shown) [Example 9025] ({CH2CO}-Y[NMeA]NPHL[Hyp]WS[Bta][NMeM][NMeNle]R[ξC]G-NH2; thioether N-14): 0.158 to 4.71 nM and 0.385 to 6.74 nM.
The matching figures for `CCCC[C@H]1C(=O)N(C)[C@@H](CCCC)C(=O)N[C@@H](CO)C(=O)NC(C(=O)NCC(N)=O)CSCC(=O)N[C@@H](Cc2ccc(O)cc2)C(=O)N(C)[C@@H](C)C(=O)N[C@@H](CC(N)=O)C(=O)N2CCC[C@H]2C(=O)N[C@@H](Cc2cnc[nH]2)C(=O)N[C@@H](CC(C)C)C(=O)N2CCC[C@H]2C(=O)N[C@@H](Cc2c[nH]c3ccccc23)C(=O)N[C@@H](CO)C(=O)N[C@@H](Cc2csc3ccccc23)C(=O)N1C` (stereo partly shown) [Example 9027] ({CH2CO}-Y[NMeA]NPHLPWS[Bta][NMeNle][NMeNle]S[ξC]G-NH2; thioether N-14): 0.158 to 4.71 nM and 0.385 to 6.74 nM.
As to `CCCC[C@H]1C(=O)N(C)[C@@H](CCCC)C(=O)N[C@@H](CO)C(=O)NC(C(=O)NCC(N)=O)CSCC(=O)N[C@@H](Cc2ccc(O)cc2)C(=O)N(C)[C@@H](C)C(=O)N[C@@H](CC(N)=O)C(=O)N2CCC[C@H]2C(=O)N[C@@H](Cc2cnc[nH]2)C(=O)N[C@@H](CC(C)C)C(=O)N2C[C@H](O)C[C@H]2C(=O)N[C@@H](Cc2c[nH]c3ccccc23)C(=O)N[C@@H](CO)C(=O)N[C@@H](Cc2csc3ccccc23)C(=O)N1C` (stereo partly shown) [Example 9028] ({CH2CO}-Y[NMeA]NPHL[Hyp]WS[Bta][NMeNle][NMeNle]S[ξC]G-NH2; thioether N-14), the IC50 in experiment [1] lay in the range of 0.158 to 4.71 nM; on Human PD-L1/PD-1, 0.385 to 6.74 nM.
The matching figures for `CCCC[C@H]1C(=O)N(C)[C@@H](CCCC)C(=O)N[C@@H](CO)C(=O)NC(C(=O)NCC(N)=O)CSCC(=O)N[C@@H](Cc2ccc(O)cc2)C(=O)N(C)[C@@H](C)C(=O)N[C@@H](CC(N)=O)C(=O)N2CCC[C@H]2C(=O)N[C@@H](Cc2cnc[nH]2)C(=O)N[C@@H](CC(C)C)C(=O)N2C[C@H](O)C[C@H]2C(=O)N[C@@H](Cc2c[nH]c3ccccc23)C(=O)N[C@@H](CO)C(=O)N[C@@H](Cc2c[nH]c3ccccc23)C(=O)N1C` (stereo partly shown) [Example 9029]: 0.158 to 4.71 nM and 6.76 to 30.3 nM.
For `CCCC[C@H]1C(=O)N(C)[C@@H](CCSC)C(=O)N[C@@H](CCCNC(=N)N)C(=O)NC(C(=O)NCC(N)=O)CSCC(=O)N[C@@H](Cc2ccc(O)cc2)C(=O)N(C)[C@@H](C)C(=O)N[C@@H](CC(N)=O)C(=O)N2CCC[C@H]2C(=O)N[C@@H](Cc2cnc[nH]2)C(=O)N[C@@H](CC(C)C)C(=O)N2CCC[C@H]2C(=O)N[C@@H](Cc2c[nH]c3ccccc23)C(=O)N[C@@H](CO)C(=O)N[C@@H](Cc2c[nH]c3ccccc23)C(=O)N1C` (stereo partly shown) [Example 9030] ({CH2CO}-Y[NMeA]NPHLPWSW[NMeNle][NMeM]R[ξC]G-NH2; thioether N-14), in that order: 0.158 to 4.71 nM and 0.385 to 6.74 nM.
